The text below walks through data of US6897224B2, “Quinoline and isoquinoline derivatives, a process for their production and their use as inflammation inhibitors” (Schering AG, priority 2002, dated 2005).

The target of assay [1] is glucocorticoid receptor (GR) (Homo sapiens, UniProt P04150). The experiment in a line: biochemical. The source says: The binding of the substances to the glucocorticoid receptor (GR) and other steroid hormone receptors (mineral corticoid receptor (MR), progesterone receptor (PR) and androgen receptor (AR)) is examined with the aid of recombinantly produced receptors. Cytosol preparations of Sf9 cells, which had been infected with recombinant baculoviruses that code for the GR, are used for the binding studies.

Assay [2] concerns the target T1, mineral corticoid receptor (MR) (Homo sapiens, UniProt P08235).
T1 construct: made in house
T1 sequence (P08235 1-984): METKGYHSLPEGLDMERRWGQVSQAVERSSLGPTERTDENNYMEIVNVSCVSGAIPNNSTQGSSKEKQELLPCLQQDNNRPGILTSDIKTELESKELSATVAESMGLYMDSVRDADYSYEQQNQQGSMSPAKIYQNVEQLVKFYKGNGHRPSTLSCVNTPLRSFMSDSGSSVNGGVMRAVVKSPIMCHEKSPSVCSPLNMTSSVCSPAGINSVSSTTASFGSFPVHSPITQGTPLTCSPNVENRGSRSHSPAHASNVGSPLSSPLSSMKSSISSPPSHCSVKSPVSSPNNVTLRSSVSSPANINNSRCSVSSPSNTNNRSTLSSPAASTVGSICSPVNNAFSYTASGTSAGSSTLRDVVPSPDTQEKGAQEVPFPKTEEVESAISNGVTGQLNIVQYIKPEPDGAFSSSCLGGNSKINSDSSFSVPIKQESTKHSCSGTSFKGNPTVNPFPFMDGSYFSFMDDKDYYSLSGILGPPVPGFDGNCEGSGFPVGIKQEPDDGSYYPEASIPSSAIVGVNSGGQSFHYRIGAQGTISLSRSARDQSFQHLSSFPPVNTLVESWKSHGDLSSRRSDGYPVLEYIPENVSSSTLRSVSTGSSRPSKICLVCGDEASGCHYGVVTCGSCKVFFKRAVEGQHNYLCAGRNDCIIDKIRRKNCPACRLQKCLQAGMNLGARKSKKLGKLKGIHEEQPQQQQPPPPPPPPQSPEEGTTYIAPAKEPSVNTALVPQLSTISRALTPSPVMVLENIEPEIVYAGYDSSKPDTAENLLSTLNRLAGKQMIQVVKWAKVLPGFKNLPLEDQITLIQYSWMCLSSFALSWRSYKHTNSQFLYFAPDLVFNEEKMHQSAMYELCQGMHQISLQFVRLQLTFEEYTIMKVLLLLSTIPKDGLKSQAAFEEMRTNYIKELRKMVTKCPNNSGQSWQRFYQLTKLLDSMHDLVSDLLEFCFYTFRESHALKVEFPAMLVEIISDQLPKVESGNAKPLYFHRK
Description: Binding to the mineral corticoid receptor, recombinantly produced receptor.

Assay [3] deals with T2, progesterone receptor (PR) (Homo sapiens, UniProt P06401).
T2 construct: made in house
T2 sequence (P06401 1-933): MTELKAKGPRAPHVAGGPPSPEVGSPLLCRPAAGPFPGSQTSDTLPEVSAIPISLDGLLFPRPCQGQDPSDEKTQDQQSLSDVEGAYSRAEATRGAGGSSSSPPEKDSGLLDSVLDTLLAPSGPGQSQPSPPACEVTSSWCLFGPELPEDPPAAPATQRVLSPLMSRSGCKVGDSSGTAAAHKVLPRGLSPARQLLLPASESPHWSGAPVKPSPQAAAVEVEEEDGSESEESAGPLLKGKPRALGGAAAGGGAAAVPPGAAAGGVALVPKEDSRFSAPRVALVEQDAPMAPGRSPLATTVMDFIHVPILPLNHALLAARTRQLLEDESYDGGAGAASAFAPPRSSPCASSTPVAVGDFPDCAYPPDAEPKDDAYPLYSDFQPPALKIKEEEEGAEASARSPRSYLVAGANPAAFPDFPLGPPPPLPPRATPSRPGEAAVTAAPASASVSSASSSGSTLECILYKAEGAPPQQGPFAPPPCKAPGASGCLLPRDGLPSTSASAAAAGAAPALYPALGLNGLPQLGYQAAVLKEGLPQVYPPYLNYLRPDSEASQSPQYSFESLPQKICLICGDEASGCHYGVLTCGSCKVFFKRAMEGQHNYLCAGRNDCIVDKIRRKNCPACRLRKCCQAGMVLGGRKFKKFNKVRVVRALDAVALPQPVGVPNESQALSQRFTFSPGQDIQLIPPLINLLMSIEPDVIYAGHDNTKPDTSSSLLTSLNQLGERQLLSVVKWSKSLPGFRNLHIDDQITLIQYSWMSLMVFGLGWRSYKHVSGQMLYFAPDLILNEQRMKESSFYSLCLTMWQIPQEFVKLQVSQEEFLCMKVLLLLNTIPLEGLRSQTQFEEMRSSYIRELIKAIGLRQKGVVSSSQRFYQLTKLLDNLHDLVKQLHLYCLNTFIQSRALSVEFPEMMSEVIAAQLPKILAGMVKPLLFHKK
Description: Binding to the progesterone receptor, recombinantly produced receptor.

In assay [4] the target is T3, androgen receptor (AR) (Homo sapiens, UniProt P10275).
T3 construct: made in house
T3 sequence (P10275 1-920): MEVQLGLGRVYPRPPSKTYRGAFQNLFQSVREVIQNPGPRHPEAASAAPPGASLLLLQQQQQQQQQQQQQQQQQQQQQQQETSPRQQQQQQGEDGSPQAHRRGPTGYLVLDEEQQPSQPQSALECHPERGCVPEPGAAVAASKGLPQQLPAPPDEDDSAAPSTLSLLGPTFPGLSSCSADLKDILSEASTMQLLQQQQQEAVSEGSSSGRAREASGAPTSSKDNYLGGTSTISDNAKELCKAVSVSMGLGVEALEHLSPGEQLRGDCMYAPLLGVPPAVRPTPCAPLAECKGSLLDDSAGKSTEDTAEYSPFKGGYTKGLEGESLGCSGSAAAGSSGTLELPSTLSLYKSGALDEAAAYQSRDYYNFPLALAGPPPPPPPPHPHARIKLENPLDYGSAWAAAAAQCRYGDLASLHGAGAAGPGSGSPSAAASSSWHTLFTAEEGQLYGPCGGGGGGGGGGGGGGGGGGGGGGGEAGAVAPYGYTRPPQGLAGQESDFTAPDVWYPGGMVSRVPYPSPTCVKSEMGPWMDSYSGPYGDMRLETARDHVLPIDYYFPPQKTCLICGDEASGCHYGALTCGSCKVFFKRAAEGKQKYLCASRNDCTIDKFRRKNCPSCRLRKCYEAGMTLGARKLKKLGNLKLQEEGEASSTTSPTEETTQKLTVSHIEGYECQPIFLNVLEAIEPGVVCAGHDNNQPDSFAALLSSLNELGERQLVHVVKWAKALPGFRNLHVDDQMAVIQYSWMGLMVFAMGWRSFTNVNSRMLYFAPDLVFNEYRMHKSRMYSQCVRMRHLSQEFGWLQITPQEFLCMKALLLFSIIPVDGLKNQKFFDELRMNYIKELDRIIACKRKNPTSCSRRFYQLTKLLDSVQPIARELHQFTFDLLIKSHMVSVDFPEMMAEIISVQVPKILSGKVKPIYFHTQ
Description: Binding to the androgen receptor, recombinantly produced receptor.

pIC50: −log10 of the molar value.

glucocorticoid receptor (GR), sequence (P04150 whole entry, species assumed): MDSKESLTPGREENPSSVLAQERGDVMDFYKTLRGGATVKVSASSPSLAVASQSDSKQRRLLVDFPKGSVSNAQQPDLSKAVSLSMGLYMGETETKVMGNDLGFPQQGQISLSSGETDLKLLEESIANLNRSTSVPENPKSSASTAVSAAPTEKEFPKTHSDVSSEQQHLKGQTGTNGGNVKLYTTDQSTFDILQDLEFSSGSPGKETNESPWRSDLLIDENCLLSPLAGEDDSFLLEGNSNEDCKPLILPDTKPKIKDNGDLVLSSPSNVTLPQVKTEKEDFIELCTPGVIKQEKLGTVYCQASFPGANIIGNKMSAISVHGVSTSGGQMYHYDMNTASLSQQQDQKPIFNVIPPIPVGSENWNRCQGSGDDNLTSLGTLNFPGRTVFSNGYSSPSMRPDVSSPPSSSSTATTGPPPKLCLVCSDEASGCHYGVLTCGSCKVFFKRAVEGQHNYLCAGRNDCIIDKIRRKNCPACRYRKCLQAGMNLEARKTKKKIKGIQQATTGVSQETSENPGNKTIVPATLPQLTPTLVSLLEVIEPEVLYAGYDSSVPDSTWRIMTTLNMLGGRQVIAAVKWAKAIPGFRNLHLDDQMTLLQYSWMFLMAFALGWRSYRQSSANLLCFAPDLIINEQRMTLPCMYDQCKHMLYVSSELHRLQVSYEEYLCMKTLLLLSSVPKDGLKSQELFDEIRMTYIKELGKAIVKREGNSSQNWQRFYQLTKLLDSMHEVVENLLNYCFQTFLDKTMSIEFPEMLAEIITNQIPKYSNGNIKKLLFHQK

A word on the pIC50: it is the IC50 on a negative log10 scale, so that one unit is a factor of ten. On to `CC(C)(CC(O)(CNc1cccc2ncccc12)C(F)(F)F)c1cc(F)ccc1O` (stereo not shown) [Example 4], for which the pIC50 is 8.89 to 9.22 in assay [1], less than 6.00 in assay [2], less than 6.00 in assay [3] and less than 6.00 in assay [4].
